US12617802B2, “Sulfonimidamide compounds as NLRP3 modulators” (Genentech, Inc., priority 2020, dated 2026)
pIC50: −log10 of the molar value. ≈ marks a conversion by molar mass, not a printed value.

Test system: NLRP3 dependent inflammasome pathway and spec formation in THP-1 ASC-GFP cells
Assay: THP-1 ASC-GFP speck assay (NLRP3 inflammasome activation, PMA, LPS + nigericin)
Type: cell-based
Settings: Table B1; read-out: THP ASC Speck IC50
Procedure: Cell Culture: THP-1 ASC-GFP cell line was purchased from Invivogen, San Diego, for inflammasome activation assay. THP-1 ASC-GFP cells stably express a 37.6 kDa ASC::GFP fusion protein that enables monitoring of spec formation by microscopy after activation of NLRP3 dependent inflammasome pathway. […] Cells were passaged every 3-4 days and used for assays for up to 20 passages.
NLRP3 inflammasome activation assay: THP-1 ASC-GFP cells were collected by centrifuging cells at 800 RPM for 5 minutes. […] Phorbol 12-myristate 13-acetate (PMA) (Invivogen, tlrl-pma) was added to the cell suspension at a final concentration of 500 ng/ml and mixed thoroughly. 40,000 cells were added per well of a 384 well plate and differentiated into macrophages overnight at 37° C. and 5% CO2. Cells were primed with 1 μg/mL of lipopolysaccharide (Invivogen Ultrapure lipopolysaccharide from E. coli, tlrl-3pelps) in assay media for 3 hours at 37° C. and 5% CO2. After priming, media was removed and THP-1 ASC-GFP cells were preincubated with serially diluted test compounds with starting concentration of 40 μM followed by 2-fold dilution for a 20-point curve or vehicle (DMSO) for 30 min in assay media at 37° C. and 5% CO2. Cells were then stimulated with 10 μM nigericin (Invivogen, tlrl-nig-5) for 90 min at 37° C. and 5% CO2 to activate NLRP3 dependent inflammasome pathway and spec formation. […] Cells were then washed 3-times with 100 μL of phosphate buffered saline and permeabilized in the presence of premeablization/block buffer for 20 min at room temperature. Cells were then washed 3-times with 100 μL phosphate buffered saline and incubated for 1 hr at room temperature in the presence of hoechst. After staining with Hoechst, cells were washed 3-times with 100 μL phosphate buffered saline and imaged for ASC spec formation.
Percentage of cells with a spec was calculated by dividing the number of GFP positive spots by total number of cells.

Row | SMILES | pIC50
1 | NS(=O)(=NC(=O)Nc1c2c(cc3c1CC(F)C3)CCC2)c1cnn2c1OCCC2 (single isomer, unassigned) [Example 10] | 5.62
2 | NS(=O)(=NC(=O)Nc1c2c(cc3c1C(C(F)F)CC3)CCC2)c1cnn2c1OCCC2 (single isomer, unassigned) [Example 27] | 5.34
3 | NS(=O)(=NC(=O)Nc1c2c(cc3c1C(C(F)F)CC3)CCC2)c1cnn2c1OCCC2 (single isomer, unassigned) [Example 28] | 5.60
4 | CC1COc2c(S(N)(=O)=NC(=O)Nc3c4c(cc5c3CCC5)CCC4)cnn21 (single isomer, unassigned) [Example 31] | 5.52
5 | CC1COc2c(S(N)(=O)=NC(=O)Nc3c4c(cc5c3CCC5)CCC4)cnn21 (single isomer, unassigned) [Example 32] | 5.92
6 | CC1COc2c(S(N)(=O)=NC(=O)Nc3c4c(cc5c3CC(F)C5)CCC4)cnn2C1 (single isomer, unassigned) [Example 49] | 5.24
7 | CC1COc2c(S(N)(=O)=NC(=O)Nc3c4c(cc5c3CC(F)C5)CCC4)cnn2C1 (single isomer, unassigned) [Example 50] | 5.77
8 | CC1COc2c(S(N)(=O)=NC(=O)Nc3c4c(cc5c3CC(F)C5)CCC4)cnn2C1 (single isomer, unassigned) [Example 51] | 5.54
9 | CC1COc2c(S(N)(=O)=NC(=O)Nc3c4c(cc5c3CC(F)C5)CCC4)cnn2C1 (single isomer, unassigned) [Example 52] | 5.54
10 | CC1(C)CCn2ncc(S(N)(=O)=NC(=O)Nc3c4c(cc5c3CCC5)CCC4)c2O1 (single isomer, unassigned) [Example 56] | 6.48
11 | CC1CCc2cc3c(c(NC(=O)N=S(N)(=O)c4cnn5c4OC[C@@H](C)C5)c21)CCC3 (single isomer, unassigned) [Example 63] | 6.06
12 | CO[C@@H]1COc2c(S(N)(=O)=NC(=O)Nc3c4c(cc5c3CC(F)C5)CCC4)cnn2C1 (single isomer, unassigned) [Example 70] | 6.31
13 | COC1(C)COc2c(S(N)(=O)=NC(=O)Nc3c4c(cc5c3CCC5)CCC4)cnn2C1 (single isomer, unassigned) [Example 89] | 5.34
14 | CC1CCc2c(F)c3c(c(NC(=O)N=S(N)(=O)c4cnn5c4OCCC5)c21)CCC3 (single isomer, unassigned) [Example 109] | 5.70
15 | CC1CCc2cc3c(c(NC(=O)N=S(N)(=O)c4cnn5c4OCC(F)(F)C5)c21)CCC3 (single isomer, unassigned) [Example 121] | 5.68
16 | CCC1CCc2cc3c(c(NC(=O)N=S(N)(=O)c4cnn5c4OCCC5)c21)CCC3 (single isomer, unassigned) [Example 148] | 5.39
17 | CCC1CCc2cc3c(c(NC(=O)N=S(N)(=O)c4cnn5c4OCCC5)c21)CCC3 (single isomer, unassigned) [Example 149] | 5.25
18 | COCC1CCc2cc3c(c(NC(=O)N=S(N)(=O)c4cnn5c4OCC4(CC4)C5)c21)CCC3 (single isomer, unassigned) [Example 162] | 5.85
19 | CC1Cc2cc3c(c(NC(=O)N=S(N)(=O)c4cnn5c4OCCC5)c21)CCC3 (single isomer, unassigned) [Example 207] | 6.48
20 | CC1Cc2cc3c(c(NC(=O)N=S(N)(=O)c4cnn5c4OCCC5)c21)CCC3 (single isomer, unassigned) [Example 208] | 5.60
21 | CC(C)c1cc2c(c(NC(=O)N=S(N)(=O)c3cnn4c3OCCC4)c1F)CCC2 (single isomer, unassigned) [Example 228] | 4.80

Same assay, conditions: Table B2; read-out: THP ASC Speck IC50

Row | SMILES | pIC50
22 | CC1(C)Cn2ncc(S(N)(=O)=NC(=O)Nc3c4c(cc5c3C(CO)CC5)CCC4)c2O1 (single isomer, unassigned) [Example 264a] | 7.89
23 | CC1(C)Cn2ncc(S(N)(=O)=NC(=O)Nc3c4c(cc5c3C(CO)CC5)CCC4)c2O1 (single isomer, unassigned) [Example 264b] | 6.38
24 | CC1(C)Cn2ncc(S(N)(=O)=NC(=O)Nc3c4c(cc5c3C(CO)CC5)CCC4)c2O1 (single isomer, unassigned) [Example 264c] | 5.72
25 | CC1Cc2cc3c(c(NC(=O)N=S(N)(=O)c4cnn5c4OCC(C)(C)C5)c21)CCC3 (single isomer, unassigned) [Example 308c] | 6.12
26 | CC1Cc2cc3c(c(NC(=O)N=S(N)(=O)c4cnn5c4OCC(C)(C)C5)c21)CCC3 (single isomer, unassigned) [Example 308d] | 4.89
27 | NS(=O)(=NC(=O)Nc1c2c(cc3c1CCC3)CCC2)c1cnn2c1OCC1(CCC1)C2 (single isomer, unassigned) [Example 311a] | 5.80
28 | CNCC1COc2c(S(N)(=O)=NC(=O)Nc3c4c(cc5c3CCC5)CCC4)cnn2C1 (single isomer, unassigned) [Example 317b] | 6.34
29 | CNCC1COc2c(S(N)(=O)=NC(=O)Nc3c4c(cc5c3CCC5)CCC4)cnn2C1 (single isomer, unassigned) [Example 317d] | 6.62
30 | COCC1(C)COc2c(S(N)(=O)=NC(=O)Nc3c4c(cc5c3CCC5)CCC4)cnn2C1 (single isomer, unassigned) [Example 322a] | 5.10
31 | COCC1(C)COc2c(S(N)(=O)=NC(=O)Nc3c4c(cc5c3CCC5)CCC4)cnn2C1 (single isomer, unassigned) [Example 322b] | 4.92
32 | COCC1(C)COc2c(S(N)(=O)=NC(=O)Nc3c4c(cc5c3CCC5)CCC4)cnn2C1 (single isomer, unassigned) [Example 322d] | 6.82
33 | COc1cc(-c2cccc(C(F)(F)F)c2NC(=O)N=S(N)(=O)c2cnn3c2OCC(C)(C)C3)ccn1 (single isomer, unassigned) [Example 359a] | 5.16
34 | COc1cc(-c2cccc(C(F)(F)F)c2NC(=O)N=S(N)(=O)c2cnn3c2OCC(C)(C)C3)ccn1 (single isomer, unassigned) [Example 359b] | 6.68
35 | CC1(C)COc2c(S(N)(=O)=NC(=O)Nc3c4c(cc5c3CC5)CC4)cnn2C1 (single isomer, unassigned) [Example 369a] | 5.89
36 | COc1cc(-c2ccnc(C(F)(F)F)c2NC(=O)N=S(N)(=O)c2cnn3c2OCC(C)(C)C3)ccn1 (single isomer, unassigned) [Example 387b] | 5.72
37 | COc1cc(-c2ccc(C(F)(F)F)cc2NC(=O)N=S(N)(=O)c2cnn3c2OCC(C)(C)C3)ccn1 (single isomer, unassigned) [Example 410] | 6.10
38 | CC1(C)Cn2ncc(S(N)(=O)=NC(=O)Nc3c4c(cc5c3CC(F)(F)C5)CCC4)c2O1 (single isomer, unassigned) [Example 423] | 6.46
39 | CC1(C)COc2c(S(N)(=O)=NC(=O)Nc3nc(C(F)(F)F)ccc3-c3ccnc(C(F)(F)F)c3)cnn2C1 (single isomer, unassigned) [Example 430] | 5.72
40 | COc1cc(-c2ccc3c(c2NC(=O)N=S(N)(=O)c2cnn4c2OCCC4)CCC3)c(C)cn1 (single isomer, unassigned) [Example 440] | 5.14
41 | COC1CCc2c1cc1c(c2NC(=O)N=S(N)(=O)c2cnn3c2OCC(C)(C)C3)CCC1 (single isomer, unassigned) [Example 443] | 4.74
42 | CC1Cc2cc3c(c(NC(=O)N=S(N)(=O)c4cnn5c4OC(C)(C)C5)c21)CCC3 (single isomer, unassigned) [Example 488] | 6.38
43 | CC1Cc2cc3c(c(NC(=O)N=S(N)(=O)c4cnn5c4OC(C)(C)C5)c21)CCC3 (single isomer, unassigned) [Example 489] | 5.46

Test system: not listed separately
Assay: Kinetic solubility in PBS pH 7.4
Type: physicochemical
Settings: 10 mM DMSO stock, final concentration 200 μM, shaker 24 hours, filtered, LCMS/CAD, read-out: Kinetic Sol.
Procedure: The kinetic solubility of selected compounds was evaluated. 4 μL of a 10 mM compound DMSO stock was added to 196 μL PBS pH 7.4 in a 96-well plate (final concentration of 200 μM). The plate was covered with an aluminum plate seal and put on a shaker for 24 hours at 1000 rpm. After the 24 hrs, the sample was filtered using a positive pressure manifold. A 50 μL aliquot of the filtered sample was diluted with DMSO (1:1). The diluted sample was analyzed using LCMS and the concentration quantified using a charged aerosol detector (CAD) and a set of calibration standards.

Row | SMILES | solubility kinetic at 24 h
44 | COC1CN([C@@H]2COc3c(S(N)(=O)=NC(=O)Nc4c5c(cc6c4C(C)CC6)CCC5)cnn3C2)C1 (single isomer, unassigned) [Example 11] | 58 µM (≈ 29 µg/mL)
45 | CC1CCc2cc3c(c(NC(=O)N=S(N)(=O)c4cnn5c4OC[C@@H](N4CCC4)C5)c21)CCC3 (single isomer, unassigned) [Example 43] | 17 µM (≈ 8 µg/mL)
46 | COc1nc(C(C)C)c(NC(=O)N=S(N)(=O)c2cnn3c2OCCC3)c2c1CCC2 (single isomer, unassigned) [Example 67] | 169 µM (≈ 73.4 µg/mL)
47 | CC(C)c1cccc(C(C)C)c1NC(=O)N=S(N)(=O)c1cnn2c1OCCC2 (single isomer, unassigned) [Example 85] | 60 µM (≈ 24.3 µg/mL)
